Data as given in patent US20260355196A1, “INHIBITORS AND DEGRADERS OF PIP4K PROTEIN” (Larkspur Biosciences, Inc., priority 2023, published 2026).

biological target: T1, PIP4K2C (Homo sapiens, UniProt Q8TBX8); assay: HiBiT PIP4K2C degradation assay in MOLT-4 cells (endogenous PIP4K2C C-terminally tagged with HiBiT); format: cell-based; set-up: untagged in primary human PBMCs and monocyte-derived dendritic cells; conditions: 6 hours of incubation time, rather than 24 hours; MOLT-4, top concentration 10 micromolar; read-out: HiBIT-degradation MOLT4 PIP4k2C DC50 (6 hours, marked *)
T1 sequence (Q8TBX8 1-421): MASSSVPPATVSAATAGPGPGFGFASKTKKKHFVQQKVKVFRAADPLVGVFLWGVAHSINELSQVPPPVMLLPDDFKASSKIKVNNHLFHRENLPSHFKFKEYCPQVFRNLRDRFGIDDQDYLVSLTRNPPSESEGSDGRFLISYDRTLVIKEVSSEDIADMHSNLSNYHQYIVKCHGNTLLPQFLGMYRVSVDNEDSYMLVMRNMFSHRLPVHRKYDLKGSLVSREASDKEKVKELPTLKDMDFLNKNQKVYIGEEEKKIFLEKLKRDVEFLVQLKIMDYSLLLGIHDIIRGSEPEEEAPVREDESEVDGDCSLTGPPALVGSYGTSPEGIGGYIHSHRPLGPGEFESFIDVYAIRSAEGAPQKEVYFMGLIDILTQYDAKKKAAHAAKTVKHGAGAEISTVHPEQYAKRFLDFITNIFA
In short: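 Endogenous PIP4K2C was C-terminally HiBiT-tagged by CRISPR-Cas9 in MOLT-4 cells, which were treated with a 10-point, 3-fold dilution series from 10 micromolar in duplicate for 24 or 6 hours at 37 C. Remaining protein was read by HiBiT lytic luminescence, and DC50 came from a Hill fit.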

SMILES | DC50
O=C1CCC(Nc2ccc(N3CCC(N4CCC(NC(=O)[C@H]5CC[C@H](Nc6ncc(F)c(-c7cccc(N8CCCCC8=O)c7)n6)CC5)CC4)C(F)(F)C3)c(F)c2)C(=O)N1 (stereo partly drawn) [Compound 494, trans-N-(1′-(4-((2,6-dioxopiperidin-3-yl)amino)-2-fluorophenyl)-3′,3′-difluoro-[1,4′-bipiperidin]-4-yl)-4-((5-fluoro-4-(3-(2-oxopiperidin-1-yl)phenyl)pyrimidin-2-yl)amino)cyclohexane-1-carboxamide] | < 500 nM
CN(C(=O)[C@H]1CC[C@H](Nc2ncc(F)c(-c3cccc(-n4ccccc4=O)c3)n2)CC1)[C@H]1CC[C@H](N2CCN(c3ccc(NC4CCC(=O)NC4=O)cc3F)CC2)CC1 (stereo partly drawn) [Compound 488, trans-(1r,4R)—N-((1r,4R)-4-(4-(4-((2,6-dioxopiperidin-3-yl)amino)-2-fluorophenyl)piperazin-1-yl)cyclohexyl)-4-((5-fluoro-4-(3-(2-oxopyridin-1(2H)-yl)phenyl)pyrimidin-2-yl)amino)-N-methylcyclohexane-1-carboxamide] | < 500 nM
O=C1CCC(Nc2ccc(N3CCN([C@H]4CC[C@H](C(=O)N[C@H]5CC[C@H](Nc6ncc(F)c(-c7cccc(C8CC8)c7)n6)CC5)CC4)CC3)c(F)c2)C(=O)N1 (stereo partly drawn) [Compound 559, trans-N-(trans-4-((4-(3-cyclopropylphenyl)-5-fluoropyrimidin-2-yl)amino)cyclohexyl)-4-(4-(4-((2,6-dioxopiperidin-3-yl)amino)-2-fluorophenyl)piperazin-1-yl)cyclohexane-1-carboxamide] | < 500 nM
O=C1CCC(Nc2ccc(C3CCN([C@H]4CC[C@H](C(=O)N[C@H]5CC[C@H](Nc6ncc(F)c(-c7ccnc(N8CCOCC8=O)c7)n6)CC5)CC4)CC3)c(F)c2)C(=O)N1 (stereo partly drawn) [Compound 570, trans-(1r,4R)-4-(4-(4-((2,6-dioxopiperidin-3-yl)amino)-2-fluorophenyl)piperidin-1-yl)-N-((1r,4R)-4-((5-fluoro-4-(2-(3-oxomorpholino)pyridin-4-yl)pyrimidin-2-yl)amino)cyclohexyl)cyclohexane-1-carboxamide] | < 500 nM
O=C1CC[C@@H](Nc2ccc(N3CCC(N4CCC(C(=O)N[C@H]5CC[C@H](Nc6ncc(F)c(-c7cccc(-c8ccc[nH]c8=O)c7)n6)CC5)CC4)CC3)c(F)c2)C(=O)N1 [Compound 577, trans-1′-(4-(((R)-2,6-dioxopiperidin-3-yl)amino)-2-fluorophenyl)-N-((1r,4r)-4-((5-fluoro-4-(3-(2-oxo-1,2-dihydropyridin-3-yl)phenyl)pyrimidin-2-yl)amino)cyclohexyl)-[1,4′-bipiperidine]-4-carboxamide] | > 5000 nM
Cn1nc(C2CCC(=O)NC2=O)c2ccc(N3CCN([C@H]4CC[C@H](NC(=O)[C@H]5CC[C@H](Nc6ncc(F)c(-c7cccc(-n8ccccc8=O)c7)n6)CC5)CC4)CC3)cc21 (stereo partly drawn) [Compound 383, trans-N-(trans-4-(4-(3-(2,6-dioxopiperidin-3-yl)-1-methyl-1H-indazol-6-yl)piperazin-1-yl)cyclohexyl)-4-((5-fluoro-4-(3-(2-oxopyridin-1(2H)-yl)phenyl)pyrimidin-2-yl)amino)cyclohexane-1-carboxamide] | < 500 nM
O=C1CCC(Nc2ccc(N3CCC(N4CCC(C(=O)N[C@H]5CC[C@H](Nc6ncc(F)c(-c7cccc(N8CCCCC8)c7)n6)CC5)CC4)C(F)(F)C3)c(F)c2)C(=O)N1 (stereo partly drawn) [Compound 498, trans-1′-(4-((2,6-dioxopiperidin-3-yl)amino)-2-fluorophenyl)-3′,3′-difluoro-N-(4-((5-fluoro-4-(3-(piperidin-1-yl)phenyl)pyrimidin-2-yl)amino)cyclohexyl)-[1,4′-bipiperidine]-4-carboxamide] | < 500 nM
O=C1CCC(Nc2ccc(N3CCN(CC4(O)CCN(C(=O)[C@H]5CC[C@H](Nc6ncc(F)c(-c7cccc(N8CCCOC8=O)c7)n6)CC5)CC4)CC3)c(F)c2)C(=O)N1 (stereo partly drawn) [Compound 583, trans-3-((3-fluoro-4-(4-((1-(4-((5-fluoro-4-(3-(2-oxo-1,3-oxazinan-3-yl)phenyl)pyrimidin-2-yl)amino)cyclohexane-1-carbonyl)-4-hydroxypiperidin-4-yl)methyl)piperazin-1-yl)phenyl)amino)piperidine-2,6-dione] | < 500 nM

Further lines, results first:

DC50 | SMILES
< 500 nM | O=C1CCC(Nc2ccc(N3CCN(CC4CCN(C(=O)[C@H]5CC[C@H](Nc6ncc(F)c(-c7cccc(C(=O)N8CC[C@H](O)C8)c7)n6)CC5)CC4)CC3)c(F)c2)C(=O)N1 (stereo partly drawn) [Compound 483, trans-3-((3-fluoro-4-(4-((1-(4-((5-fluoro-4-(3-((S)-3-hydroxypyrrolidine-1-carbonyl)phenyl)pyrimidin-2-yl)amino)cyclohexane-1-carbonyl)piperidin-4-yl)methyl)piperazin-1-yl)phenyl)amino)piperidine-2,6-dione]
< 500 nM | O=C1CCC(Nc2ccc(C3CCN(C(=O)CC4(O)CCN(C(=O)O[C@H]5CC[C@H](Nc6ncc(F)c(-c7cccc(-n8ccccc8=O)c7)n6)CC5)CC4)CC3)c(F)c2)C(=O)N1 (stereo partly drawn) [Compound 663, trans-4-((5-fluoro-4-(3-(2-oxopyridin-1 (2H)-yl)phenyl)pyrimidin-2-yl)amino)cyclohexyl 4-(2-(4-(4-((2,6-dioxopiperidin-3-yl)amino)-2-fluorophenyl)piperidin-1-yl)-2-oxoethyl)-4-hydroxypiperidine-1-carboxylate]
< 500 nM | O=C1CCC(Nc2ccc(N3CCC(CN4CCN(C(=O)[C@H]5CC[C@H](Nc6ncc(F)c(-c7cccc(N8CCCOC8=O)c7)n6)CC5)CC4)CC3)c(F)c2)C(=O)N1 (stereo partly drawn) [Compound 428, trans-3-((3-fluoro-4-(4-((4-(4-((5-fluoro-4-(3-(2-oxo-1,3-oxazinan-3-yl)phenyl)pyrimidin-2-yl)amino)cyclohexane-1-carbonyl)piperazin-1-yl)methyl)piperidin-1-yl)phenyl)amino)piperidine-2,6-dione]
< 500 nM | O=C1CCC(Nc2ccc(C3CCN(C4CCN(C(=O)O[C@H]5CC[C@H](Nc6ncc(F)c(-c7cccc(-c8ccccc8)c7)n6)CC5)CC4)CC3)c(F)c2)C(=O)N1 (stereo partly drawn) [Compound 651, trans-4-((4-([1,1′-biphenyl]-3-yl)-5-fluoropyrimidin-2-yl)amino)cyclohexyl 4-(4-((2,6-dioxopiperidin-3-yl)amino)-2-fluorophenyl)-[1,4′-bipiperidine]-1′-carboxylate]
< 500 nM | Cn1nc(C2CCC(=O)NC2=O)c2ccc(C3CCN(CC4CCN(C(=O)[C@H]5CC[C@H](Nc6ncc(F)c(-c7cccc(-c8ccc[nH]c8=O)c7)n6)CC5)CC4)CC3)cc21 (stereo partly drawn) [Compound 391, trans-3-(6-(1-((1-(4-((5-fluoro-4-(3-(2-oxo-1,2-dihydropyridin-3-yl)phenyl)pyrimidin-2-yl)amino)cyclohexane-1-carbonyl)piperidin-4-yl)methyl)piperidin-4-yl)-1-methyl-1H-indazol-3-yl)piperidine-2,6-dione]

same assay, conditions: 24 hours incubation, MOLT-4, top concentration 10 micromolar; read-out: HiBIT-degradation MOLT4 PIP4k2C 24 hours DC50

DC50 | SMILES
< 500 nM | O=C1CCC(Nc2ccc(C3CCN(CCN4CCC(C(=O)N5CCC(Nc6ncc(Cl)c(-c7cccc(-c8ccccc8)c7)n6)CC5)CC4)CC3)cc2)C(=O)N1 (stereo not drawn) [Compound 74, 3-((4-(1-(2-(4-(4-((4-([1,1′-biphenyl]-3-yl)-5-chloropyrimidin-2-yl)amino)piperidine-1-carbonyl)piperidin-1-yl)ethyl)piperidin-4-yl)phenyl)amino)piperidine-2,6-dione]
< 500 nM | Cn1nc(C2CCC(=O)NC2=O)c2ccc(N3CCC(CN4CCC(NC(=O)[C@H]5CCC[C@@H](Nc6ncc(F)c(-c7cccc(-n8ccccc8=O)c7)n6)C5)CC4)CC3)cc21 (relative stereo) [Compound 332, cis-N-(1-((1-(3-(2,6-dioxopiperidin-3-yl)-1-methyl-1H-indazol-6-yl)piperidin-4-yl)methyl)piperidin-4-yl)-3-((5-fluoro-4-(3-(2-oxopyridin-1(2H)-yl)phenyl)pyrimidin-2-yl)amino)cyclohexane-1-carboxamide]
500 to 1000 nM | O=C1CCC(N2Cc3cc(C4CCN(C5CCN(CCC(=O)N6CCC(Nc7ncc(Cl)c(-c8cccc(-c9ccccc9)c8)n7)CC6)CC5)CC4)ccc3C2=O)C(=O)N1 (stereo not drawn) [Compound 86, 3-(5-(1′-(3-(4-((4-([1,1′-biphenyl]-3-yl)-5-chloropyrimidin-2-yl)amino)piperidin-1-yl)-3-oxopropyl)-[1,4′-bipiperidin]-4-yl)-1-oxoisoindolin-2-yl)piperidine-2,6-dione]
< 500 nM | O=C1CCC(Nc2ccc(C3CCN(CCC4CCN(C(=O)[C@H]5CCC[C@@H](Nc6ncc(Cl)c(-c7cccc(-c8ccccc8)c7)n6)C5)CC4)CC3)cc2)C(=O)N1 (relative stereo) [Compound 64, cis-3-((4-(1-(2-(1-(3-((4-([1,1′-biphenyl]-3-yl)-5-chloropyrimidin-2-yl)amino)cyclohexane-1-carbonyl)piperidin-4-yl)ethyl)piperidin-4-yl)phenyl)amino)piperidine-2,6-dione]
500 to 1000 nM | O=C1CCC(Nc2ccc(C3CCN(CC4CCN(CC(=O)N5CCC(Nc6ncc(Cl)c(-c7cccc(-c8ccccc8)c7)n6)CC5)CC4)CC3)cc2)C(=O)N1 (stereo not drawn) [Compound 53, 3-((4-(1-((1-(2-(4-((4-([1,1′-biphenyl]-3-yl)-5-chloropyrimidin-2-yl)amino)piperidin-1-yl)-2-oxoethyl)piperidin-4-yl)methyl)piperidin-4-yl)phenyl)amino)piperidine-2,6-dione]
